Experimental data as given in US10294234B2, “HIV inhibitor compounds” (priority 2017, dated 2019).
Like-named read-outs stand apart in the source and are kept apart here.

Columns and labels:
[1] = test system: HIV-1 (IIIB) in MT-4 cells; assay: MT-4 HIV assay; format: cell-based; conditions: Human immunodeficiency virus 1, MT4, 120 h
Procedure, shortened: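 MT-4 cells infected with HIV-1 IIIB (1:250 stock dilution) were incubated with 1:3 serially diluted compounds in RPMI with 10% FBS for 5 days at 37 °C. Cell Titer Glo luminescence was the readout. Plates included mock-infected wells, no-drug wells and 5 uM AZT controls.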

[2] = Procedure, shortened: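 Compounds at 1 uM were incubated in duplicate with dog, rat or human liver microsomes (0.5 mg/mL protein) and an NADPH-regenerating system, sampled at 2, 12, 25, 45 and 65 minutes. Remaining parent was measured by LC/MS/MS, and Clint was calculated from the in vitro t1/2.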
[3] = HIV-1 (IIIB), MT-4 cells, 5 days, Cell Titer Glo, read-out: EC50
[4] = human liver microsomes 0.5 mg/mL, 1 uM compound, NADPH
[5] = rat liver microsomes 0.5 mg/mL, 1 uM compound, NADPH

Human Pred Cl. [2, 4] [L/H/kg] | Rat. Pred. Cl. [2, 5] [L/H/kg] | Structure (SMILES) | EC50 [1, 3] [nM] | Human Pred Cl. ([2]; human, microsomes) [L/H/kg] | Rat. Pred. Cl. ([2]; rat, microsomes) [L/H/kg] | EC50 [1] [nM]
0.41 | 1.43 | COC(=O)N[C@H](C(=O)N[C@@H](Cc1ccc(C#Cc2ccc(N3CC4CC(CN(C(C)=O)C4)C3)nc2)cc1)[C@@H](O)CN(Cc1c(F)cc(-c2cnn(C(F)F)c2)cc1F)NC(=O)[C@@H](NC(=O)OC)C(C)(C)C(F)(F)F)C(C)(C)C(F)(F)F [Example 67, Methyl ((5S,8S,9S,14S)-8-(4-((6-(7-acetyl-3,7-diazabicyclo[3.3.1]nonan-3-yl)pyridin-3-yl)ethynyl)benzyl)-1-(4-(1-(difluoromethyl)-1H-pyrazol-4-yl)-2,6-difluorobenzyl)-16,16,16-trifluoro-9-hydroxy-15,15-dimethyl-3,6,13-trioxo-5-(1,1,1-trifluoro-2-methylpropan-2-yl)-2-oxa-4,7,11,12-tetraazahexadecan-14-yl)carbamate] | 6.25 | – | – | –
<0.11 | 0.61 | COC(=O)N[C@H](C(=O)N[C@@H](Cc1ccc(C#Cc2ccc(N3CC4CCC(C3)O4)nc2)cc1)[C@@H](O)CN(Cc1c(F)cc(-c2cnn(C(F)F)c2)cc1F)NC(=O)[C@@H](NC(=O)OC)C(C)(C)C(F)(F)F)C(C)(C)C(F)(F)F [Example 68, Methyl ((5S,8S,9S,14S)-8-(4-((6-(8-oxa-3-azabicyclo[3.2.1]octan-3-yl)pyridin-3-yl)ethynyl)benzyl)-11-(4-(1-(difluoromethyl)-1H-pyrazol-4-yl)-2,6-difluorobenzyl)-16,16,16-trifluoro-9-hydroxy-15,15-dimethyl-3,6,13-trioxo-5-(1,1,1-trifluoro-2-methylpropan-2-yl)-2-oxa-4,7,11,12-tetraazahexadecan-14-yl)carbamate] | 7.25 | – | – | –
<0.11 | <0.18 | COC(=O)N[C@H](C(=O)N[C@@H](Cc1ccc(C#Cc2ccc(-c3cn4c(n3)CN(C)C(=O)C4)cc2)cc1)[C@@H](O)CN(Cc1c(F)cc(-c2cnn(C(F)F)c2)cc1F)NC(=O)[C@@H](NC(=O)OC)C(C)(C)C(F)(F)F)C(C)(C)C(F)(F)F [Example 69, Methyl ((5S,8S,9S,14S)-11-(4-(1-(difluoromethyl)-1H-pyrazol-4-yl)-2,6-difluorobenzyl)-16,16,16-trifluoro-9-hydroxy-15,15-dimethyl-8-(4-((4-(7-methyl-6-oxo-5,6,7,8-tetrahydroimidazo[1,2-a]pyrazin-2-yl)phenyl)ethynyl)benzyl)-3,6,13-trioxo-5-(1,1,1-trifluoro-2-methylpropan-2-yl)-2-oxa-4,7,11,12-tetraazahexadecan-14-yl)carbamate] | 3.24 | – | – | –
– | – | COC(=O)N[C@H](C(=O)N[C@@H](Cc1ccc(C#Cc2ccc(N3CC4CCC(C3)N4S(C)(=O)=O)nc2)cc1)[C@@H](O)CN(Cc1c(F)cc(-c2cnn(C(F)F)c2)cc1F)NC(=O)[C@@H](NC(=O)OC)C(C)(C)C(F)(F)F)C(C)(C)C(F)(F)F [Example 70, Methyl ((5S,8S,9S,14S)-11-(4-(1-(difluoromethyl)-1H-pyrazol-4-yl)-2,6-difluorobenzyl)-16,16,16-trifluoro-9-hydroxy-15,15-dimethyl-8-(4-((6-(8-(methylsulfonyl)-3,8-diazabicyclo[3.2.1]octan-3-yl)pyridin-3-yl)ethynyl)benzyl)-3,6,13-trioxo-5-(1,1,1-trifluoro-2-methylpropan-2-yl)-2-oxa-4,7,11,12-tetraazahexadecan-14-yl)carbamate] | 4.79 | <0.11 | <0.18 | –
– | – | COC(=O)N[C@H](C(=O)NN(Cc1c(F)cc(-c2ccn(C(F)F)n2)cc1F)C[C@H](O)[C@H](Cc1ccc(C#Cc2ccc(N3CC4CCC(C3)N4S(C)(=O)=O)nc2)cc1)NC(=O)[C@@H](NC(=O)OC)C(C)(C)C(F)(F)F)C(C)(C)C [Example 72, Methyl ((5S,8S,9S,14S)-11-(4-(1-(difluoromethyl)-1H-pyrazol-3-yl)-2,6-difluorobenzyl)-9-hydroxy-15,15-dimethyl-8-(4-((6-(8-(methylsulfonyl)-3,8-diazabicyclo[3.2.1]octan-3-yl)pyridin-3-yl)ethynyl)benzyl)-3,6,13-trioxo-5-(1,1,1-trifluoro-2-methylpropan-2-yl)-2-oxa-4,7,11,12-tetraazahexadecan-14-yl)carbamate] | 5.19 | 0.14 | <0.18 | –
– | – | COC(=O)N[C@H](C(=O)NN(Cc1c(F)cc(-c2cn(C(F)F)cn2)cc1F)C[C@H](O)[C@H](Cc1ccc(C#Cc2ccc(N3CC4CCC(C3)N4C3COC3)nc2)cc1)NC(=O)[C@@H](NC(=O)OC)C(C)(C)C(F)(F)F)C(C)(C)C [Example 77, Methyl ((5S,8S,9S,14S)-11-(4-(1-(difluoromethyl)-1H-imidazol-4-yl)-2,6-difluorobenzyl)-9-hydroxy-15,15-dimethyl-8-(4-((6-(8-(oxetan-3-yl)-3,8-diazabicyclo [3.2.1]octan-3-yl)pyridin-3-yl)ethynyl)benzyl)-3,6,13-trioxo-5-(1,1,1-trifluoro-2-methylpropan-2-yl)-2-oxa-4,7,11,12-tetraazahexadecan-14-yl)carbamate] | 2.49 | <0.11 | 0.25 | –
– | – | COC(=O)N[C@H](C(=O)N[C@@H](Cc1ccc(C#Cc2ccc(N3CC4CCC(C3)N4C3COC3)nc2C)cc1)[C@@H](O)CN(Cc1c(F)cc(-c2ccccn2)cc1F)NC(=O)[C@@H](NC(=O)OC)C(C)(C)C(F)(F)F)C(C)(C)C(F)(F)F [Example 78, Methyl ((5S,8S,9S,14S)-11-(2,6-difluoro-4-(pyridin-2-yl)benzyl)-16,16,16-trifluoro-9-hydroxy-15,15-dimethyl-8-(4-((2-methyl-6-(8-(oxetan-3-yl)-3,8-diazabicyclo[3.2.1]octan-3-yl)pyridin-3-yl)ethynyl)benzyl)-3,6,13-trioxo-5-(1,1,1-trifluoro-2-methylpropan-2-yl)-2-oxa-4,7,11,12-tetraazahexadecan-14-yl)carbamate] | 6.27 | <0.11 | <0.18 | –
<0.11 | 0.39 | COC(=O)N[C@H](C(=O)N[C@@H](Cc1ccc(C#Cc2ccc(N3CCN(C)C(=O)C3)nc2)cc1)[C@@H](O)CN(Cc1c(F)cc(-c2ccn(C(F)F)n2)cc1F)NC(=O)[C@@H](NC(=O)OC)C(C)(C)C(F)(F)F)C(C)(C)C(F)(F)F [Example 81, Methyl ((5S,8S,9S,14S)-11-(4-(1-(difluoromethyl)-1H-pyrazol-3-yl)-2,6-difluorobenzyl)-16,16,16-trifluoro-9-hydroxy-15,15-dimethyl-8-(4-((6-(4-methyl-3-oxopiperazin-1-yl)pyridin-3-yl)ethynyl)benzyl)-3,6,13-trioxo-5-(1,1,1-trifluoro-2-methylpropan-2-yl)-2-oxa-4,7,11,12-tetraazahexadecan-14-yl)carbamate] | – | – | – | 4.39
– | – | COC(=O)N[C@H](C(=O)N[C@@H](Cc1ccc(C#Cc2ccc(N3CC4CCC(C3)N4C3COC3)nc2)cc1)[C@@H](O)CN(Cc1c(F)cc(C2CCOCC2)cc1F)NC(=O)[C@@H](NC(=O)OC)C(C)(C)C(F)(F)F)C(C)(C)C(F)(F)F [Example 82, Methyl ((5S,8S,9S,14S)-11-(2,6-difluoro-4-(tetrahydro-2H-pyran-4-yl)benzyl)-16,16,16-trifluoro-9-hydroxy-15,15-dimethyl-8-(4-((6-(8-(oxetan-3-yl)-3,8-diazabicyclo[3.2.1]octan-3-yl)pyridin-3-yl)ethynyl)benzyl)-3,6,13-trioxo-5-(1,1,1-trifluoro-2-methylpropan-2-yl)-2-oxa-4,7,11,12-tetraazahexadecan-14-yl)carbamate] | 4.4 | 0.82 | 0.44 | –
– | – | COC(=O)N[C@H](C(=O)NN(Cc1ccc(-c2ccn(C(F)F)n2)cc1)C[C@H](O)[C@H](Cc1ccc(C#Cc2ccc(N3CC4CCC(C3)N4C3COC3)nc2)cc1)NC(=O)[C@@H](NC(=O)OC)C(C)(C)C(F)(F)F)C(C)(C)C [Example 85, Methyl ((5S,8S,9S,14S)-11-(4-(1-(difluoromethyl)-1H-pyrazol-3-yl)benzyl)-9-hydroxy-15,15-dimethyl-8-(4-((6-(8-(oxetan-3-yl)-3,8-diazabicyclo[3.2.1]octan-3-yl)pyridin-3-yl)ethynyl)benzyl)-3,6,13-trioxo-5-(1,1,1-trifluoro-2-methylpropan-2-yl)-2-oxa-4,7,11,12-tetraazahexadecan-14-yl)carbamate] | 3.78 | 0.13 | 0.19 | –
– | – | COC(=O)N[C@H](C(=O)NN(Cc1c(F)cc(-c2cnn(C(F)F)c2)cc1F)C[C@H](O)[C@H](Cc1ccc(C#Cc2ccc(N3CC4CCC(C3)N4C3COC3)nc2)cc1)NC(=O)[C@@H](NC(=O)OC)C(C)(C)C(F)(F)F)C(C)(C)C [Example 86, Methyl ((5S,8S,9S,14S)-11-(4-(1-(difluoromethyl)-1H-pyrazol-4-yl)-2,6-difluorobenzyl)-9-hydroxy-15,15-dimethyl-8-(4-((6-(8-(oxetan-3-yl)-3,8-diazabicyclo[3.2.1]octan-3-yl)pyridin-3-yl)ethynyl)benzyl)-3,6,13-trioxo-5-(1,1,1-trifluoro-2-methylpropan-2-yl)-2-oxa-4,7,11,12-tetraazahexadecan-14-yl)carbamate] | 2.61 | <0.11 | <0.18 | –
